From patent publication US5674911A, “Antiinfective polyoxypropylene/polyoxyethylene copolymers and methods of use” (Cytrx Corporation, priority 1995, dated 1997)

What was measured:
Mycobacterium avium = experiment: growth index of Mycobacterium avium in Bactec 7H12 Middlebrook broth (14C fatty acid); details: 0.04 μg/ml (FIG. 35)
[1] = system: human peripheral blood mononuclear cells (PBMC); experiment: growth / cytotoxicity in uninfected mitogen stimulated human PBMC; details: 144 h, read-out: % Growth inhibition, PBMC
HIV-1 (strain LAV-1) = experiment: anti-HIV-1 assay in PBMC (reverse transcriptase activity); type: cell-based; details: Human immunodeficiency virus 1, PBMC, 144 h, read-out: Anti-HIV-1 in PBMC: EC50
in vitro = details: human, pha-stimulated pbmc
[2] = growth / cytotoxicity in Vero cells; details: african green monkey, vero cells
Vero cells = experiment: growth / cytotoxicity in Vero cells; details: Chlorocebus sabaeus, Vero, 96 h, read-out: % Growth inhibition, Vero

Which “inhibiting growth of M. avium” value (Mycobacterium avium) does the source give for `CO[C@H]1/C=C/O[C@@]2(C)Oc3c(C)c(O)c4c(O)c(c(/C=N/N5CCN(C)CC5)c(O)c4c3C2=O)NC(=O)/C(C)=C\C=C\[C@H](C)[C@H](O)[C@@H](C)[C@@H](O)[C@@H](C)[C@H](OC(C)=O)[C@@H]1C` [Rifampin, rifampin] here?
Its value is “effective in inhibiting growth”.

With `Cc1cn([C@H]2C[C@H](N=[N+]=[N-])[C@@H](CO)O2)c(=O)[nH]c1=O` [AZT, azidothymidine] as the compound, how does the inhibition at 0.1 µM [1] read?
The inhibition at 0.1 µM was -8.9%.

What about the inhibition at 1 µM [1] of the same compound?
Its inhibition at 1 µM is -2.2%.

What about the inhibition at 10 µM [1] of the same compound?
The inhibition at 10 µM was 5.5%.

What about the inhibition at 50 µM [1] of the same compound?
The inhibition at 50 µM was 16.8%.

And the inhibition at 100 µM [1]?
The inhibition at 100 µM was 28.4%.

What about the EC50 (HIV-1 (strain LAV-1)) of the same compound?
Its EC50 is 0.0056 µM.

And the CC50 at 144 h (in vitro)?
Its CC50 at 144 h is greater than 100 µM.

And the CC50 at 96 h [2]?
Its CC50 at 96 h is 50.6 µM.

What about the inhibition at 0.1 µM (Vero cells) of the same compound?
The inhibition at 0.1 µM was -1.8%.

What about the inhibition at 1 µM (Vero cells) of the same compound?
The inhibition at 1 µM was 10.2%.

What about the inhibition at 10 µM (Vero cells) of the same compound?
Its inhibition at 10 µM is 20.7%.

And the inhibition at 50 µM (Vero cells)?
The inhibition at 50 µM was 47.4%.

What about the inhibition at 100 µM (Vero cells) of the same compound?
Its inhibition at 100 µM is 66.3%.
